The numbers were not newly measured in US20250082604A1, “COMPOSITIONS CONTAINING A HIGH CONTENT OF PROANTHOCYANIDINS AND METHODS OF PREPARATION AND USE THEREOF” (priority 2022, published 2025), which cites them from elsewhere.

The data set relates to human HepG2 cells. Particulars: literature data (dx.doi.org/10.3390/antiox9060471).

Each structure is given as a SMILES string.

Consider `COc1ccc(O)c(C(C)(C)C)c1` [BHA], for which the “AOP1 EC50, data from the literature” value is 31.54 µg/mL.
`Cc1cc(C(C)(C)C)c(O)c(C(C)(C)C)c1` [BHT]: the “AOP1 EC50, data from the literature” value is 34.25 µg/mL.
Take `Cc1c(C)c2c(c(C)c1O)CCC(C)(C(=O)O)O2` (stereo not shown) [Trolox]: the “AOP1 EC50, data from the literature” value was 138.50 µg/mL.
On to `Oc1ccc(C=Cc2cc(O)cc(O)c2)cc1` [resveratrol], for which the “AOP1 EC50, data from the literature” value is 64.66 µg/mL.
